Data: publication PMC5521769, “Identification of odorant binding proteins and chemosensory proteins in Microplitis mediator as well as functional characterization of chemosensory protein 3” (PLoS ONE, 2017)
Like-named read-outs stand apart in the source and are kept apart here. Each block holds one compound with its values, some of them ahead of it.

Columns and labels:
[1] = target: recombinant MmedCSP3 (Microplitis mediator, UniProt A0A219T7S8); test: biochemical; assay type: binding
Method: The bis-ANS and all compounds were dissolved in HPLC purity-grade methanol with a concentration of 1 mM.
The bound chemical was evaluated based on its fluorescence intensity with the assumption that the protein was 100% active with a stoichiometry of 1: 1 (protein: ligand) saturation. The binding curves were linearized using a Scatchard plot, and the dissociation constants of the competitors were calculated from the corresponding IC50 values based on the following equation: Ki = [IC50] / (1 + [bis-ANS] / Kbis-ANS), where [bis-ANS] is the free concentration of bis-ANS and Kbis-ANS is the dissociation constant of the complex protein / bis-ANS [33].

[2] = tested on: M. mediator; design: method as in PMID 20388293; conditions: ref [22], [23]; cited from earlier work
[3] = tested on: MmedOBPs and MmedCSPs (MmdeOBP1–10, MmedCSP1); design: method as in PMID 20388293; conditions: MmdeOBP1–10 and MmedCSP1; ref [22], [23]; cited from earlier work
[4] = protein and bis-ANS at 2 μM, competitor 2–40 μM, 50 mM Tris-HCl pH 7.4, mean ± SD, text values are ranges over the named group, read-out: Ki, dissociation constant

recombinant MmedCSP3, sequence (A0A219T7S8 entry or part of it): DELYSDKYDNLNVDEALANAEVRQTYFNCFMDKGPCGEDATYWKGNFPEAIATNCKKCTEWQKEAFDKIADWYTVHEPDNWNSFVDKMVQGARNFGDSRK

Structure (SMILES): CCCCCCCC/C=C\CCCCCCCC(=O)O [Octadecenoic acid]
Ki [1, 4]: 18.2 ± 1.74 µM

Ki [1, 4]: 26.8 ± 1.27 µM
Structure (SMILES): C=C/C=C(\C)CC/C=C(\C)CCC=C(C)C [TMTT, (3E, 7E)-4,8, 12-trimethyltrideca-1,3,7, 11-tetraene]

Ki [1, 4]: 17.2 ± 1.67 µM
Structure (SMILES): CCCC/C=C\CCCCCCCCCC=O [cis-11-hexadecenyl Aldehyde, cis-11-hexadecenyl aldehyde]

Structure (SMILES): CCCCCCCCCCCCCCCC(=O)O [Palmitic acid]
Ki [1]: 22.2 ± 1.82 µM

Kd ([1]; 2 μM protein titrated with bis-ANS 2–16 μM, 50 mM Tris-HCl pH 7.4, read-out: dissociation constant of the MmedCSP3 / bis-ANS complexes): 1.75 ± 0.42 µM
Structure (SMILES): O=S(=O)(O)c1cccc2c(-c3ccc(Nc4ccccc4)c4c(S(=O)(=O)O)cccc34)ccc(Nc3ccccc3)c12 [bis-ANS, 4, 4’-dianilino-1,1’-binaphthyl-5,5’-sulfonic acid, reference compound]

Structure (SMILES): CCC/C=C/C=O [(E)-2-hexen-1-al]
electrophysiological and behavioral responses of M. mediator [2]: could elicit electrophysiological and behavioral responses
binding affinity to MmedOBPs and MmedCSPs [3]: no any binding affinity

Ki [1, 4]: 17.6 ± 1.19 µM
Structure (SMILES): CCCC/C=C\CCCCCCCCCCO [cis-11-hexadecanol]

Ki [1, 4]: 18.8 ± 2.06 µM
Structure (SMILES): CC/C=C/CCCCCCCCCCOC(C)=O [trans-11-tetradecenyl acetate]

Ki [1, 4]: 32.9 ± 7.43 µM
Structure (SMILES): CCCC(=O)OCC [Ethyl butyrate]

Structure (SMILES): COC(=O)c1ccccc1O [Methyl salicylate]
Ki [1]: 39.22 ± 0.25 µM

Structure (SMILES): CC/C=C\CCOC(C)=O [(Z)-3-hexenyl acetate]
electrophysiological and behavioral responses of M. mediator [2]: could elicit electrophysiological and behavioral responses
binding affinity to MmedOBPs and MmedCSPs [3]: no any binding affinity
